Data taken from ChEMBL document CHEMBL1201862, “PubChem BioAssay data set” (2004).
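All cell lines were grown in 96-well plates and treated with compound for 48 hours. The concentration for 50% growth inhibition is given as GI50.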 Calls of active or inactive are those of the source. Rule as the data show it: active = GI50 up to about 1.1 µM and inactive = higher.

Key:
Experiment in all cases: NCI tumour cell line growth inhibition, 48 h
[1] = system: HCT-116
[2] = system: HCT-15
[3] = system: HOP-18
[4] = system: HOP-92
[5] = system: K562
[6] = system: KM12
[7] = system: M14
[8] = system: M19-MEL
[9] = system: Malme-3M
[10] = system: OVCAR-4
[11] = system: SK-MEL-2
[12] = system: SK-MEL-5
[13] = system: SR
[14] = system: TK-10
[15] = system: U-251
[16] = system: CAKI-1
[17] = system: HL-60
[18] = system: MDA-MB-231
[19] = system: MDA-N

| Structure (SMILES) | GI50 [1] | GI50 [2] [µM] | GI50 [3] | GI50 [4] | GI50 [5] | GI50 [6] | GI50 [7] | GI50 [8] | GI50 [9] | GI50 [10] | GI50 [11] | GI50 [12] | GI50 [13] | GI50 [14] | GI50 [15] | GI50 [16] | GI50 [17] | GI50 [18] | GI50 [19] |
| --- | --- | --- | --- | --- | --- | --- | --- | --- | --- | --- | --- | --- | --- | --- | --- | --- | --- | --- | --- |
| COc1cccc(C=O)c1[O-].COc1cccc(C=O)c1[O-].[Zn+2] | 44.3 µM (inactive) | 38 | 40.9 µM (inactive) | 21.9 µM (inactive) | 55.3 µM (inactive) | > 100 µM (inactive) | 36.3 µM (inactive) | 31.8 µM (inactive) | 69 µM (inactive) | 57.5 µM (inactive) | 48.9 µM (inactive) | 35.2 µM (inactive) | 35.6 µM (inactive) | > 100 µM (inactive) | 38.4 µM (inactive) | – | – | – | – |
| O=C1NC(O)n2c(=O)[nH]c(=O)n21 (centres undefined) | > 100 µM (inactive) | > 100 | > 100 µM (inactive) | > 100 µM (inactive) | > 100 µM (inactive) | > 100 µM (inactive) | > 100 µM (inactive) | > 100 µM (inactive) | – | > 100 µM (inactive) | > 100 µM (inactive) | > 100 µM (inactive) | > 100 µM (inactive) | > 100 µM (inactive) | > 100 µM (inactive) | > 100 µM (inactive) | 71 µM (inactive) | – | – |
| N#CC1C[C@@H]2CC3(CCC2CN1C(=O)c1ccccc1)OCCO3 (some centres undefined) | > 100 µM (inactive) | > 100 | > 100 µM (inactive) | > 100 µM (inactive) | > 100 µM (inactive) | > 100 µM (inactive) | > 100 µM (inactive) | > 100 µM (inactive) | > 100 µM (inactive) | > 100 µM (inactive) | 0.0925 µM (active) | > 100 µM (inactive) | 0.607 µM (active) | > 100 µM (inactive) | > 100 µM (inactive) | – | > 100 µM (inactive) | – | – |
| COc1ccccc1C1c2cc3c(cc2OC(O)(CO)C1C(=O)O)OCO3.COc1ccccc1C1c2cc3c(cc2OC2(O)COC(=O)C12)OCO3 (centres undefined) | > 100 µM (inactive) | > 100 | > 100 µM (inactive) | > 100 µM (inactive) | > 100 µM (inactive) | > 100 µM (inactive) | > 100 µM (inactive) | > 100 µM (inactive) | > 100 µM (inactive) | > 100 µM (inactive) | > 100 µM (inactive) | > 100 µM (inactive) | > 100 µM (inactive) | > 100 µM (inactive) | > 100 µM (inactive) | – | 95.1 µM (inactive) | – | – |
| O=c1cc(-c2ccccc2)[nH]c2c(F)ccc(F)c12 | 40.6 µM (inactive) | 26.7 | > 100 µM (inactive) | > 100 µM (inactive) | 30.3 µM (inactive) | 18.5 µM (inactive) | 35.4 µM (inactive) | 41.4 µM (inactive) | 31.7 µM (inactive) | > 100 µM (inactive) | 16.4 µM (inactive) | 44.1 µM (inactive) | 13.3 µM (inactive) | 61.9 µM (inactive) | 41.4 µM (inactive) | 56.6 µM (inactive) | 31.8 µM (inactive) | – | – |
| O=C1CCCCC1C1(O)C(=O)Nc2cc(F)ccc21 (centres undefined) | > 100 µM (inactive) | > 100 | > 100 µM (inactive) | > 100 µM (inactive) | > 100 µM (inactive) | > 100 µM (inactive) | > 100 µM (inactive) | > 100 µM (inactive) | > 100 µM (inactive) | > 100 µM (inactive) | > 100 µM (inactive) | > 100 µM (inactive) | – | > 100 µM (inactive) | > 100 µM (inactive) | > 100 µM (inactive) | > 100 µM (inactive) | – | – |
| NC1=NNC(=O)c2nnc3c(C(=O)O)cnn3c2S1 | > 100 µM (inactive) | – | > 100 µM (inactive) | > 100 µM (inactive) | > 100 µM (inactive) | > 100 µM (inactive) | > 100 µM (inactive) | > 100 µM (inactive) | > 100 µM (inactive) | > 100 µM (inactive) | – | > 100 µM (inactive) | > 100 µM (inactive) | > 100 µM (inactive) | > 100 µM (inactive) | > 100 µM (inactive) | > 100 µM (inactive) | – | – |
| COc1ccc(NC(=O)CC(=O)N2N=C(N(CCC#N)c3cccc(C)c3)CC2c2ccccc2)cc1 (centres undefined) | > 100 µM (inactive) | > 100 | > 100 µM (inactive) | > 100 µM (inactive) | > 100 µM (inactive) | > 100 µM (inactive) | > 100 µM (inactive) | > 100 µM (inactive) | > 100 µM (inactive) | > 100 µM (inactive) | > 100 µM (inactive) | > 100 µM (inactive) | > 100 µM (inactive) | – | > 100 µM (inactive) | > 100 µM (inactive) | > 100 µM (inactive) | – | – |
| Cc1cc(N(CCC#N)CCC#N)ccc1/C=C1N=C(/C=C\c2ccccc2)N(c2ccc(Cl)cc2)C\1=O | 6.76 µM (inactive) | 0.718 | > 100 µM (inactive) | > 95.7 µM (inactive) | 0.607 µM (active) | 4.52 µM (inactive) | 1.29 µM (inactive) | 1.57 µM (inactive) | 17.7 µM (inactive) | > 39.4 µM (inactive) | > 54.8 µM (inactive) | 0.43 µM (active) | > 100 µM (inactive) | > 53.3 µM (inactive) | > 28.6 µM (inactive) | > 24.3 µM (inactive) | 6.05 µM (inactive) | > 100 µM (inactive) | > 100 µM (inactive) |
| CCOC(=O)/C=C/c1ccccn1 | > 100 µM (inactive) | > 100 | > 100 µM (inactive) | > 100 µM (inactive) | > 100 µM (inactive) | > 100 µM (inactive) | > 100 µM (inactive) | > 100 µM (inactive) | > 100 µM (inactive) | > 100 µM (inactive) | > 100 µM (inactive) | > 100 µM (inactive) | > 100 µM (inactive) | > 100 µM (inactive) | > 100 µM (inactive) | > 100 µM (inactive) | > 100 µM (inactive) | – | – |
| Clc1ccc(C2=NOC(C3CCCCC3)C2)cc1 (centres undefined) | > 100 µM (inactive) | > 100 | > 100 µM (inactive) | > 100 µM (inactive) | > 100 µM (inactive) | > 100 µM (inactive) | > 100 µM (inactive) | > 100 µM (inactive) | > 100 µM (inactive) | > 100 µM (inactive) | > 100 µM (inactive) | > 100 µM (inactive) | > 100 µM (inactive) | > 100 µM (inactive) | > 100 µM (inactive) | – | > 100 µM (inactive) | – | – |
| NC(=S)N/N=C1/C(=O)N(c2ccccc2)C(=O)C1C(=O)Nc1ccccc1 (centres undefined) | > 100 µM (inactive) | > 100 | > 100 µM (inactive) | > 100 µM (inactive) | – | > 100 µM (inactive) | > 100 µM (inactive) | > 100 µM (inactive) | > 100 µM (inactive) | > 100 µM (inactive) | > 100 µM (inactive) | > 100 µM (inactive) | > 100 µM (inactive) | > 100 µM (inactive) | > 100 µM (inactive) | > 100 µM (inactive) | > 100 µM (inactive) | – | – |
| O=C1CCCc2c(O)ccc(O)c21 | > 100 µM (inactive) | > 100 | > 100 µM (inactive) | – | 35.9 µM (inactive) | > 100 µM (inactive) | > 100 µM (inactive) | 93.5 µM (inactive) | > 100 µM (inactive) | > 100 µM (inactive) | > 100 µM (inactive) | > 100 µM (inactive) | 28.3 µM (inactive) | > 100 µM (inactive) | > 100 µM (inactive) | – | 22.8 µM (inactive) | – | – |
| COC(=O)c1c2c(c(-c3ccccc3)c3c1-c1nc(Cl)ccc1CC3)CCc1ccc(Cl)nc1-2 | 77.6 µM (inactive) | > 100 | > 100 µM (inactive) | 42.2 µM (inactive) | > 100 µM (inactive) | > 100 µM (inactive) | > 100 µM (inactive) | > 100 µM (inactive) | > 100 µM (inactive) | > 100 µM (inactive) | – | > 100 µM (inactive) | > 100 µM (inactive) | > 100 µM (inactive) | 59.6 µM (inactive) | > 100 µM (inactive) | > 100 µM (inactive) | – | – |
| COc1cc2cc3c4c(cc(OC)c(OC)c4c2cc1OC)CCN3C(=O)OCCN1CCNCC1 | 11.9 µM (inactive) | 15.5 | 17 µM (inactive) | 12.9 µM (inactive) | 12.6 µM (inactive) | 15.1 µM (inactive) | 14.7 µM (inactive) | 6.95 µM (inactive) | 17.3 µM (inactive) | 17.5 µM (inactive) | 19.3 µM (inactive) | 14.3 µM (inactive) | 11.2 µM (inactive) | 15 µM (inactive) | 15.3 µM (inactive) | 15 µM (inactive) | 13.2 µM (inactive) | – | – |
| O=C1CC(S(=O)(=O)O)C=C1Nc1cccc(Cl)c1 (centres undefined) | > 100 µM (inactive) | – | > 100 µM (inactive) | > 100 µM (inactive) | > 100 µM (inactive) | > 100 µM (inactive) | > 100 µM (inactive) | > 100 µM (inactive) | > 100 µM (inactive) | > 100 µM (inactive) | > 100 µM (inactive) | > 100 µM (inactive) | > 100 µM (inactive) | > 100 µM (inactive) | > 100 µM (inactive) | > 100 µM (inactive) | > 100 µM (inactive) | – | – |
| CN(N=O)C(=O)ON1C(=O)CCC1=O | > 100 µM (inactive) | > 100 | > 100 µM (inactive) | > 100 µM (inactive) | > 100 µM (inactive) | > 100 µM (inactive) | > 100 µM (inactive) | > 100 µM (inactive) | > 100 µM (inactive) | > 100 µM (inactive) | > 100 µM (inactive) | > 100 µM (inactive) | – | > 100 µM (inactive) | – | > 100 µM (inactive) | > 100 µM (inactive) | – | – |
